The target in one assay is Rho kinase 1 (ROCK1) (Homo sapiens, UniProt Q13464). The assay can be described thus: In vitro Rho kinase inhibitory activity assay (ADP-Glo), ROCK1. The conditions noted are these: Ki by Cheng-Prusoff from IC50; 10 μM ATP; range of activity. The format is biochemical. How it is done:
(§1) The effectiveness of compounds of the invention to inhibit Rho kinase activity can be determined in a […] assay containing 40 mM Tris pH7.5, 20 mM MgC2 0.1 mg/ml BSA, 50 μM DTT and 2.5 μM peptide substrate (Myelin Basic Protein) using an ADP-Glo kit (Promega). Compounds were dissolved in DMSO such that the final concentration of DMSO was 1% in the assay. All reactions/incubations are performed at 25° C. Compound (2 ul) and either Rho kinase 1 or 2 (4 μl) were mixed and incubated for 30 mins. Reactions were initiated by addition of ATP (4 μl) such that the final concentration of ATP in the assay was 10 μM. After a 1 hour incubation 10 μl of ADP-Glo Reagent was added and after a further 45 minute incubation 20 ul of Kinase Detection Buffer was added and the mixture incubated for a further 30 minutes. The luminescent signal was measured on a luminometer. […] Compounds were tested in dose-response format and the inhibition of kinase activity was calculated at each concentration of compound. To determine the IC50 (concentration of compound required to inhibit 50% of the enzyme activity) data were fit to a plot of % inhibition vs Log10 compound concentration using a sigmoidal fit with a variable slope and fixing the maximum to 100% and the minimum to 0%. To determine the Ki values the Cheng-Prusoff equation was utilized (Ki=IC50/(1+[S]/Km)
A general note: In ADP-Glo the light output rises with the ADP produced.

The next assay addresses Rho kinase 2 (ROCK2) (Homo sapiens, UniProt O75116). Briefly: In vitro Rho kinase inhibitory activity assay (ADP-Glo), ROCK2. Type of assay: biochemical. The conditions noted are these: Ki by Cheng-Prusoff from IC50; 10 μM ATP; range of activity. The protocol: as §1

pKi: −log10 of the molar value. Where only a bound is given, the exact number is not on record here.

For orientation: pKi means −log10 of the Ki, conventionally taken in molar units. Lower therefore signals a high Ki.

Chain of Rho kinase 2 (ROCK2) (O75116 whole entry): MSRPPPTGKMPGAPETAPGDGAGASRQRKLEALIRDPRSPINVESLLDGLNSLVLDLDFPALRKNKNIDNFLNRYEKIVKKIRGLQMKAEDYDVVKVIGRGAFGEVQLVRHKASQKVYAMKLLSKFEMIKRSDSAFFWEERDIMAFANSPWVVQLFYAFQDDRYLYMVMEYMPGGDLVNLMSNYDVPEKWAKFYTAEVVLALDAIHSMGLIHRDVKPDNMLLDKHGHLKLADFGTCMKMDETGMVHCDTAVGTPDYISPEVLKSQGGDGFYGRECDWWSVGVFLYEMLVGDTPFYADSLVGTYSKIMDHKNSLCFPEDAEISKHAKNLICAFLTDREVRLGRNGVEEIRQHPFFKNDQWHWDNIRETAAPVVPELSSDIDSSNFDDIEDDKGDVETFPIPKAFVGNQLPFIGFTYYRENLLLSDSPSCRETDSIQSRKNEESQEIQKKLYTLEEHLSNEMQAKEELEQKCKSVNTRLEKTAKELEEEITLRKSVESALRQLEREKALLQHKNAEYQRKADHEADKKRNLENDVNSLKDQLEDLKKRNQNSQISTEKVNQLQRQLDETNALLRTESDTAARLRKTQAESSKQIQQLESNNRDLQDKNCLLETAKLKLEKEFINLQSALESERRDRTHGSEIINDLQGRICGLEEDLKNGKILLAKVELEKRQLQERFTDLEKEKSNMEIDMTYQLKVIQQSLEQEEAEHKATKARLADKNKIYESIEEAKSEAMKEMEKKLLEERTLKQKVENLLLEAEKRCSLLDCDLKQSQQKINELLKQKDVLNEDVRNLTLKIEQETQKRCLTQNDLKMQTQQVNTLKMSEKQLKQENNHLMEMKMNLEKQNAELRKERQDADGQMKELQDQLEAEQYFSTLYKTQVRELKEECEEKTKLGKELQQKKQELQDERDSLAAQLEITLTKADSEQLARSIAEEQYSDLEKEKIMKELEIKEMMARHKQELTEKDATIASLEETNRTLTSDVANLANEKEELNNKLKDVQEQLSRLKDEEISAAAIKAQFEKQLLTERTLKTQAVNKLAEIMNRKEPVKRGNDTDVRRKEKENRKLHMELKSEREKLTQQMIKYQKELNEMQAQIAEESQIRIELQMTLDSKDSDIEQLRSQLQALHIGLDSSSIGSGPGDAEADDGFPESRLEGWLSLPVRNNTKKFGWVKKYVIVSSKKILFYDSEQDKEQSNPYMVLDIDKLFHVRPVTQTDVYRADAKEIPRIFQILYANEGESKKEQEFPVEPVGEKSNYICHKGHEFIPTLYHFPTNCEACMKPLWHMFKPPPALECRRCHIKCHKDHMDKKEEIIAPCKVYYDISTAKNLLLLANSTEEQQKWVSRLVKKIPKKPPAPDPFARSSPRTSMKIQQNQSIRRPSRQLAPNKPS
Chain of Rho kinase 1 (ROCK1) (Q13464 whole entry): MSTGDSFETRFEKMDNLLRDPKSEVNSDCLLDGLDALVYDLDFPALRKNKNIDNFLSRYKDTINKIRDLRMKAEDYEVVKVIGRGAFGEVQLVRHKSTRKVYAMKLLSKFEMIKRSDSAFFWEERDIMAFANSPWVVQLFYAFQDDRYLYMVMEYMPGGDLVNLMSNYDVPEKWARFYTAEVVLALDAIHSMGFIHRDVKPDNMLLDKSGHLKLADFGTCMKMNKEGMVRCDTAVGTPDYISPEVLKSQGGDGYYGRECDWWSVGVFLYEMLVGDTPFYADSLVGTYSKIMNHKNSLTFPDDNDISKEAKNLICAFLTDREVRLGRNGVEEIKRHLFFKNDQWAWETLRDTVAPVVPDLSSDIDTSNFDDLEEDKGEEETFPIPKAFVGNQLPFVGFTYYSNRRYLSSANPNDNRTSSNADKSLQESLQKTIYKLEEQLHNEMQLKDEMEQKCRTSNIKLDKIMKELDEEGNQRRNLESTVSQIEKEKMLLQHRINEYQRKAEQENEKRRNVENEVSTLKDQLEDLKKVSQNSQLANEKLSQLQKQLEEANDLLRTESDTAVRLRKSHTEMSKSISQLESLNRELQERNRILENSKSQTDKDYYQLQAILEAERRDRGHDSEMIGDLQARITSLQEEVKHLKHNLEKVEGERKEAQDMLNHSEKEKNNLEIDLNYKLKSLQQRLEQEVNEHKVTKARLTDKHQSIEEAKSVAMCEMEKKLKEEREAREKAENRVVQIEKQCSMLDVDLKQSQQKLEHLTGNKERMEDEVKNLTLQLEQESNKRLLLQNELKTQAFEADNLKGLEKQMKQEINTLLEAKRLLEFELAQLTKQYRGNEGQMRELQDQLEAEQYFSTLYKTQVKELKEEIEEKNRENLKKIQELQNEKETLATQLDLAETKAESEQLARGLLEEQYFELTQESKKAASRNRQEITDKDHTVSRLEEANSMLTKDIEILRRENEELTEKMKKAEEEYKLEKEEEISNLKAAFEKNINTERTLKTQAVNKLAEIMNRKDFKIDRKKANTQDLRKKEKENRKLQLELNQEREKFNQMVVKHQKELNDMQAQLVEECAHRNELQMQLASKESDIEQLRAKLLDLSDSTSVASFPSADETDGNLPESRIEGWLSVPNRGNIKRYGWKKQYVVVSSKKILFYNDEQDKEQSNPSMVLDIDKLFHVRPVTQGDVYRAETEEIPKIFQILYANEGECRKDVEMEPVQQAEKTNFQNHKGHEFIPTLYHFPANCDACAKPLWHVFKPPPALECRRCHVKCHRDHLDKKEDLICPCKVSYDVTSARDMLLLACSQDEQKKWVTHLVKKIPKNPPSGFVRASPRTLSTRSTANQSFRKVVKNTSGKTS

In the case of `Cc1c[nH]c2nccc(Oc3ccc(CN)cc3F)c12` [Example 12, (3-fluoro-4-((3-methyl-1H-pyrrolo[2,3-b]pyridin-4-yl)oxy)phenyl)methanamine], the negative logarithm of the Ki (pKi) at Rho kinase 1 (ROCK1) and on Rho kinase 2 (ROCK2) was over 8.30 in each case.

As for `Cc1c[nH]c2nccc(Oc3ccc(CNCCO)cc3)c12` [Example 31, 2-((4-((3-methyl-1H-pyrrolo[2,3-b]pyridin-4-yl)oxy)benzyl)amino)ethanol], the negative logarithm of the Ki (pKi) at Rho kinase 1 (ROCK1) and at Rho kinase 2 (ROCK2) was 7.30 to 8.30 in each case.

For the compound `Cc1c[nH]c2nccc(Oc3ccc(CN4CCOCC4)cc3)c12` [Example 27, 4-(4-((3-Methyl-1H-pyrrolo[2,3-b]pyridin-4-yl)oxy)benzyl)morpholine], the negative logarithm of the Ki (pKi) on Rho kinase 1 (ROCK1) and at Rho kinase 2 (ROCK2) was under 7.30 each time.

As to `NCc1cc(F)c(Oc2ccnc3[nH]ccc23)c(F)c1` [Example 35, (4-((1H-Pyrrolo[2,3-b]pyridin-4-yl)oxy)-3,5-difluorophenyl)methanamine], the pKi at Rho kinase 1 (ROCK1) was 7.30 to 8.30; at Rho kinase 2 (ROCK2) it was over 8.30.

For `Cc1c[nH]c2nccc(Oc3ccc(C[C@H](N)CO)cc3F)c12` [Example 36, (S)-2-amino-3-(3-fluoro-4-((3-methyl-1H-pyrrolo[2,3-b]pyridin-4-yl)oxy)phenyl)propan-1-ol], the pKi at Rho kinase 1 (ROCK1) and at Rho kinase 2 (ROCK2) was over 8.30 throughout.

For the compound `Cc1c[nH]c2nccc(Oc3ccc4c(c3)CNCCC4)c12` [Example 16, 8-((3-methyl-1H-pyrrolo[2,3-b]pyridin-4-yl)oxy)-2,3,4,5-tetrahydro-1H-benzo[c]azepine], the negative logarithm of the Ki (pKi) on Rho kinase 1 (ROCK1) is 7.30 to 8.30; at Rho kinase 2 (ROCK2), over 8.30.

The record behind these values is patent publication US11332468B2, “Azaindole derivatives as Rho-kinase inhibitors” (CHIESI FARMACEUTICI S.p.A., priority 2017, dated 2022).
